Patent US20020038028A1, “7-Hetero-bicyclo[2.2.1]-heptanes” (priority 1998, published 2002)

| melting point [°C] | Structure (SMILES) |
| --- | --- |
| 198.5 to 201 | Cl.N=C(N)c1ccc(C2CC3CCC2N3)cc1 (centres unmarked) |
| 242.5 to 244 | Cl.Oc1ccc(C2CC3CCC2N3)cc1 (centres unmarked) |
| 216.5 to 218 | CSc1ccc(C2CC3CCC2N3)cc1.Cl (centres unmarked) |
| 235 to 236 | COC(=O)c1ccc(C2CC3CCC2N3)cc1.Cl (centres unmarked) |
| 261.5 to 264.5 | Cl.O=C(O)c1ccc(C2CC3CCC2N3)cc1 (centres unmarked) |
